These results are taken from patent US20260347338A1, “PYRIMIDINE/PYRIDINE DERIVATIVES OR SALTS THEREOF AND PHARMACEUTICAL COMPOSITIONS COMPRISING THE SAME” (YUHAN CORPORATION, priority 2023, published 2026).

Each structure is given as a SMILES string. Structures can show the parent of a compound that is named as a salt.

The target of this assay is T1, human recombinant HPK1 (Homo sapiens, UniProt Q92918).
T1 construct: purchased BPS Bioscience
Nature of the assay: Inhibitory activity against human recombinant HPK1 (TR-FRET). The conditions noted are these: ULight-p70S6K peptide, ATP at Km, room temperature, 1 hour, 0.32 to 1000 nM compound. In kind it is biochemical. In outline: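 Recombinant human HPK1 with ULight-p70S6K peptide and ATP at Km, 1 h at room temperature in HEPES pH 7.4 buffer with Mg2+, Mn2+, EGTA, DTT; compounds 0.32–1000 nM final. EDTA stop, Eu-anti-phosphopeptide TR-FRET read (665 nm); IC50 from % inhibition versus DMSO, binned A–D at 10, 50, 100 nM.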
For orientation: TR-FRET usually uses a lanthanide donor and a delayed reading to cut background.

T1 sequence (Q92918 whole entry): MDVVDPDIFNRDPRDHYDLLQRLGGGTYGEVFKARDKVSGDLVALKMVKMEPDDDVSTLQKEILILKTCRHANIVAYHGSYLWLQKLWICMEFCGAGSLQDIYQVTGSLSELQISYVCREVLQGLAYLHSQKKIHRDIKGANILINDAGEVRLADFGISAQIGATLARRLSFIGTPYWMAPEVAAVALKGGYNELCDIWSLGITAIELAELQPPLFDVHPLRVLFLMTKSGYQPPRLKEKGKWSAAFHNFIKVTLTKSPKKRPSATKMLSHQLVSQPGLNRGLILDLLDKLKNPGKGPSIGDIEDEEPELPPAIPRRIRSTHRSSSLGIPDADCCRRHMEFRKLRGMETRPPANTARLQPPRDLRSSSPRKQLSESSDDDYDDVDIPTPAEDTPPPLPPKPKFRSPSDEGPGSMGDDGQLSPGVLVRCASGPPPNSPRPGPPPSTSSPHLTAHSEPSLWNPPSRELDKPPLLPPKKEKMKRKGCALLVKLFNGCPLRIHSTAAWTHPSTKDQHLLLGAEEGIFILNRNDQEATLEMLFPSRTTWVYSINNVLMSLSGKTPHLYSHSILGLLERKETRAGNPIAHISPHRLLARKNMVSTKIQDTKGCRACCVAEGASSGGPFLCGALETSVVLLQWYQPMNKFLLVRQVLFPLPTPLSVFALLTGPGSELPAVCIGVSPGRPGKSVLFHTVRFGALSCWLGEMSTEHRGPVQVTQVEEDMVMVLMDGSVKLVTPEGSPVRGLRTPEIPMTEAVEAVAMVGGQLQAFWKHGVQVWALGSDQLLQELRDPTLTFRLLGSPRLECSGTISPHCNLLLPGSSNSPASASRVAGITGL

As usually defined, the IC50 is the point on the concentration scale where inhibition reaches its midpoint. Consider `COc1cccc(F)c1-c1nc(Nc2cc(N3CCC[C@H](O)C3)c(-c3cnn(C4CCN(C)CC4)c3)cn2)ccc1C#N` [Example 325, 2-(2-fluoro-6-methoxyphenyl)-6-((4-((S)-3-hydroxypiperidin-1-yl)-5-(1-(1-methylpiperidin-4-yl)-1H-pyrazol-4-yl)pyridin-2-yl)amino)nicotinonitrile], for which the IC50 is at most 10 nM.

For the compound `COc1cc(F)cc(F)c1-c1nc(Nc2cc(N3CCC[C@H](O)C3)c(-c3cnn(C4CCOCC4)c3)cn2)ccc1N` [Example 227, (3S)-1-(2-((5-amino-6-(2,4-difluoro-6-methoxyphenyl)pyridin-2-yl)amino)-5-(1-(tetrahydro-2H-pyran-4-yl)-1H-pyrazol-4-yl)pyridin-4-yl)piperidin-3-ol], the half-maximal inhibitory concentration (IC50) was at most 10 nM. In the case of `COc1cccc(F)c1-c1nccc(Nc2cc(N3CCC[C@H](N)C3)c(-c3ccc(N4CCOCC4)nc3)cn2)n1` [Example 121, (S)-4-(3-aminopiperidin-1-yl)-N-(2-(2-fluoro-6-methoxyphenyl)pyrimidin-4-yl)-6′-morpholino-[3,3′-bipyridin]-6-amine hydrochloride], the IC50 is at most 10 nM. The figure for `COc1cccc(F)c1-c1nc(Nc2cc(N3CCC[C@H](N)C3)c(-c3cnn(C(F)(F)F)c3)cn2)ccc1[N+](=O)[O-]` [Example 154, 4-((S)-3-aminopiperidin-1-yl)-N-(6-(2-fluoro-6-methoxyphenyl)-5-nitropyridin-2-yl)-5-(1-(trifluoromethyl)-1H-pyrazol-4-yl)pyridin-2-amine hydrochloride] is at most 10 nM.

Regarding `COc1cccc(F)c1-c1nc(Nc2cc(N3CCC[C@H](O)C3)c(C(=O)N[C@@H]3CC[C@H](N)C3)cn2)ccc1[N+](=O)[O-]` [Example 200, N-((1R,3S)-3-aminocyclopentyl)-6-((6-(2-fluoro-6-methoxyphenyl)-5-nitropyridin-2-yl)amino)-4-((S)-3-hydroxypiperidin-1-yl)nicotinamide], the IC50 was at most 10 nM. The figure for `COc1ccc(F)c(F)c1-c1nccc(Nc2cc(N3CCC[C@H](O)C3)c(-c3cnn(C4CCOCC4)c3)cn2)n1` [Example 24, (S)-1-(2-((2-(2,3-difluoro-6-methoxyphenyl)pyrimidin-4-yl)amino)-5-(1-(tetrahydro-2H-pyran-4-yl)-1H-pyrazol-4-yl)pyridin-4-yl)piperidin-3-ol] is at most 10 nM; for `COc1cccc(F)c1-c1nc(Nc2cc(N3CCC[C@H](O)C3)c(C(N)=O)cn2)ccc1[N+](=O)[O-]` [Example 191, 6-((6-(2-fluoro-6-methoxyphenyl)-5-nitropyridin-2-yl)amino)-4-((S)-3-hydroxypiperidin-1-yl)nicotinamide] it is at most 10 nM; for `COc1cccc(F)c1-c1nccc(Nc2cc(N3CCC[C@H](N)C3)c(-c3ccc(C(=O)N4CCN(C)CC4)cc3)cn2)n1` [Example 176, (S)-(4-(4-(3-aminopiperidin-1-yl)-6-((2-(2-fluoro-6-methoxyphenyl)pyrimidin-4-yl)amino)pyridin-3-yl)phenyl)(4-methylpiperazin-1-yl)methanone hydrochloride] it is at most 10 nM. As for `COc1cccc(F)c1-c1nccc(Nc2cc(N3CCC[C@H](N)C3)c(-c3cnn([C@@H]4CCNC4)c3)cn2)n1` [Example 238, N-(4-((S)-3-aminopiperidin-1-yl)-5-(1-((R)-pyrrolidin-3-yl)-1H-pyrazol-4-yl)pyridin-2-yl)-2-(2-fluoro-6-methoxyphenyl)pyrimidin-4-amine hydrochloride], the IC50 is at most 10 nM. Turning to `COc1cccc(F)c1-c1nc(Nc2cc(N3CCC[C@H](O)C3)c(-c3cnn(CC(F)(F)F)c3)cn2)ccc1C#N` [Example 316, 2-(2-fluoro-6-methoxyphenyl)-6-((4-((S)-3-hydroxypiperidin-1-yl)-5-(1-(2,2,2-trifluoroethyl)-1H-pyrazol-4-yl)pyridin-2-yl)amino)nicotinonitrile], the IC50 was at most 10 nM. Take `Cc1cncc(-c2nccc(Nc3cc(N4CCC[C@H](O)C4)c(C(=O)C4CC4)cn3)n2)c1` [Example 1, (S)-cyclopropyl(4-(3-hydroxypiperidin-1-yl)-6-((2-(5-methylpyridin-3-yl)pyrimidin-4-yl)amino)pyridin-3-yl)methanone]: the IC50 lay within 10 to 50 nM. The figure for `COc1cccc(F)c1-c1nc(Nc2cc(N3CCC[C@H](O)C3)c(-c3cnn(C4CCOCC4)c3)cn2)ccc1C(=O)N(C)C` [Example 113, 2-(2-fluoro-6-methoxyphenyl)-6-((4-((S)-3-hydroxypiperidin-1-yl)-5-(1-(tetrahydro-2H-pyran-4-yl)-1H-pyrazol-4-yl)pyridin-2-yl)amino)-N,N-dimethylnicotinamide] is 10 to 50 nM; for `COc1cc(F)cc(F)c1-c1nccc(Nc2cc(N3CCC[C@H](N)C3)c(C#CC3CCOCC3)cn2)n1` [Example 110, (S)-N-(4-(3-aminopiperidin-1-yl)-5-((tetrahydro-2H-pyran-4-yl)ethynyl)pyridin-2-yl)-2-(2,4-difluoro-6-methoxyphenyl)pyrimidin-4-amine] it is at most 10 nM; for `COc1cccc(F)c1-c1nc(Nc2cc(N3CCC[C@H](N)C3)c(-c3cnn(CC(F)F)c3)cn2)ccc1N` [Example 169, N^2-(4-((S)-3-aminopiperidin-1-yl)-5-(1-(2,2-difluoroethyl)-1H-pyrazol-4-yl)pyridin-2-yl)-6-(2-fluoro-6-methoxyphenyl)pyridin-2,5-diamine hydrochloride] it is at most 10 nM.

With `COc1cccc(F)c1-c1nc(Nc2cc(N3CCC[C@H](O)C3)c(C(=O)N[C@@H]3CC[C@@H](O)C3)cn2)ccc1N` [Example 201, 6-((5-amino-6-(2-fluoro-6-methoxyphenyl)pyridin-2-yl)amino)-N-((1R,3R)-3-hydroxycyclopentyl)-4-((S)-3-hydroxypiperidin-1-yl)nicotinamide], the IC50 is at most 10 nM. For the compound `COc1cccc(F)c1-c1nc(Nc2cc(N3CCC[C@H](O)C3)c(-c3cnn(CC(F)F)c3)cn2)ccc1N` [Example 179, (3S)-1-(2-((5-amino-6-(2-fluoro-6-methoxyphenyl)pyridin-2-yl)amino)-5-(1-(2,2-difluoroethyl)-1H-pyrazol-4-yl)pyridin-4-yl)piperidin-3-ol], the IC50 was at most 10 nM. As for `COc1cc(F)cc(F)c1-c1nccc(Nc2cc(N3CC[C@@H](C)[C@H](N)C3)c(-c3cnn(C(F)F)c3)cn2)n1` [Example 211, N-(4-((3S,4R)-3-amino-4-methylpiperidin-1-yl)-5-(1-(difluoromethyl)-1H-pyrazol-4-yl)pyridin-2-yl)-2-(2,4-difluoro-6-methoxyphenyl)pyrimidin-4-amine hydrochloride], the figure is at most 10 nM; as for `COc1cccc(F)c1-c1nc(Nc2cc(N3CCC[C@H](O)C3)c(-c3cnn(C4CCOCC4)c3)cn2)ccc1Cl` [Example 75, (3S)-1-(2-((5-chloro-6-(2-fluoro-6-methoxyphenyl)pyridin-2-yl)amino)-5-(1-(tetrahydro-2H-pyran-4-yl)-1H-pyrazol-4-yl)pyridin-4-yl)piperidin-3-ol], at most 10 nM; as for `COc1cccc(F)c1-c1nccc(Nc2cc(N3CC[C@@H](OC)[C@H](N)C3)c(-c3cnn(C(F)F)c3)cn2)n1` [Example 254, N-(4-((3R,4R)-3-amino-4-methoxypiperidin-1-yl)-5-(1-(difluoromethyl)-1H-pyrazol-4-yl)pyridin-2-yl)-2-(2-fluoro-6-methoxyphenyl)pyrimidin-4-amine], at most 10 nM. Turning to `COc1cc(F)cc(F)c1-c1nc(Nc2cc(N3CCC[C@H](O)C3)c(C#CC3CCOCC3)cn2)ccc1[N+](=O)[O-]` [Example 225, (3S)-1-(2-((6-(2,4-difluoro-6-methoxyphenyl)-5-nitropyridin-2-yl)amino)-5-((tetrahydro-2H-pyran-4-yl)ethynyl)pyridin-4-yl)piperidin-3-ol], the half-maximal inhibitory concentration (IC50) is at most 10 nM. As for `COc1cccc(F)c1-c1nc(Nc2cc(N3CCC[C@H](O)C3)c(C#CC3CCOCC3)cn2)ccc1C(=O)O` [Example 139, 2-(2-fluoro-6-methoxyphenyl)-6-((4-((S)-3-hydroxypiperidin-1-yl)-5-((tetrahydro-2H-pyran-4-yl)ethynyl)pyridin-2-yl)amino)nicotinic acid], the figure is at most 10 nM; as for `N[C@H]1CCCN(c2cc(Nc3ccnc(-c4c(F)cccc4CO)n3)ncc2-c2cnn(C(F)F)c2)C1` [Example 242, (S)-(2-(4-((4-(3-aminopiperidin-1-yl)-5-(1-(difluoromethyl)-1H-pyrazol-4-yl)pyridin-2-yl)amino)pyrimidin-2-yl)-3-fluorophenyl)methanol hydrochloride], at most 10 nM. Regarding `COc1cccc(F)c1-c1nccc(Nc2cc(N3CCC[C@H](N)C3)c(C#CC3CCOCC3)cn2)n1` [Example 79, (S)-N-(4-(3-aminopiperidin-1-yl)-5-((tetrahydro-2H-pyran-4-yl)ethynyl)pyridin-2-yl)-2-(2-fluoro-6-methoxyphenyl)pyrimidin-4-amine hydrochloride], the half-inhibitory concentration (IC50) was at most 10 nM. As for `COc1cc(F)cc(F)c1-c1nccc(Nc2cc(N3C[C@@H](N)C[C@@H](F)C3)c(-c3cnn(CC(F)(F)F)c3)cn2)n1` [Example 324, N-(4-((3S,5R)-3-amino-5-fluoropiperidin-1-yl)-5-(2-(2,2,2-trifluoroethyl)-1H-pyrazol-4-yl)pyridin-2-yl)-2-(2,4-difluoro-6-methoxyphenyl)pyrimidin-4-amine], the IC50 is at most 10 nM.

Take `COc1cc(F)cc(F)c1-c1nccc(Nc2cc(N3C[C@@H](N)C[C@H](F)C3)c(-c3cnn(C(C)C)c3)cn2)n1` [Example 336, N-(4-((3S,5S)-3-amino-5-fluoropiperidin-1-yl)-5-(1-isopropyl-1H-pyrazol-4-yl)pyridin-2-yl)-2-(2,4-difluoro-6-methoxyphenyl)pyrimidin-4-amine]: the half-inhibitory concentration (IC50) was at most 10 nM.
